# Measurements taken from patent US20200197409A1, “HEPATITIS B VIRUS SURFACE ANTIGEN INHIBITOR” (FUJIAN COSUNTER PHARMACEUTICAL CO., LTD., priority 2017, published 2020).
# Assays:
# HBV [1] = assay: In vivo pharmacodynamic study of hydrodynamic injection mouse HBV model (HDI-HBV) via tail vein; parameters: species or system Balb/c mice; conditions: mouse plasma
# Method: Anti-hepatitis B virus activity of the compound of the embodiment in vivo was evaluated by HDI mice model.
# Balb/c mice, 10% HP—F-CD as vehicle, test compound, RG7834, ETV (Entecavir), pAAV2-HBV 1.3mer plasmid (extracted with Qiagen EndoFree Plasmid Giga kit), main reagents including QIAamp96 DNA kit and FasStart Universal Probe Mast (ROX). The main instruments used in this experiment included centrifuge (Beckman Allegra X-15R), tissue grinder (QIAGEN-Tissue lyser II) and spectrophotometer (Thermo-NANODROP 1000).
# b) On day 0, all mice were subjected to hydrodynamic injection with HBV plasmid DNA solution via tail vein. The plasmid DNA was pre-treated with sterile physiological saline before injection and stored at 4° C. until use. Plasmid DNA solution was injected via the tail vein at a dose of 8% of the body weight of the mouse within 5 seconds.
# c) On the 1st day to the 7th day, the mice were administered with the compound or solvent by oral gavage for 7 days.
# d) On the 1st day, 3rd day and 5th day, the blood was collected from the submandibular vein of the mice, and heparin sodium was used as an anticoagulant. The blood sample was centrifuged at 7,000×g, 4° C. to prepare the plasma for the determination of HBV DNA.
# e) On the 7^h day, all mice were euthanized by CO2. The blood was collected from the heart to prepare plasma, and the liver tissue was collected. Two left hepatic lobe were isolated, the size of which was 70-100 mg, and were frozen by liquid nitrogen immediately after collection. One of the hepatic lobe was used for HBV DNA detection, and the other was used for backup.
# The content of HBsAg in the serum of the mice was determined by ELISA (enzyme linked immunosorbent assay). The experimental procedure refers to the specification of HBsAg ELISA kit.
# The inhibitory activity of the test compound on HBV replication on the mouse HDI model was determined by measuring the content of HBsAg in the plasma of the mice.
# HBV [2] = assay: Anti-HBV activity on the hepatitis B virus mouse model (AAV-HBV); type: in vivo, C57BL/6 mice; conditions: 10 mg/kg, PO
# Method: The AAV vector-mediated HBV infected mouse model is a fast and efficient HBV model. Using the high hepatotropism of the AAV vector, the recombinant adeno-associated type 8 virus carrying 1.3 copies of the HBV genome (rAAV8-1.3HBV) is injected into the tail vein of mice, which can efficiently introduce the carried 1.3 copy HBV genome into hepatocytes. Due to the characteristics of the AAV viral vector, the vector mediated by it can express for a long time. The AAV/HBV model can continuously replicate HBV DNA and express HBsAg and HBeAg in the liver of the mice.
# The anti-HBV efficacy of the test compound in vivo was evaluated by determining the content of HBsAg in the serum of the mice after treatment with the test compound on AAV/HBV mouse mode.
# C57BL/6 mice, 10% HP-f-CD as vehicle, reference compound TDF (Tenofovir), test compound, recombinant virus rAAVS-1.3HBV, main reagents of the experiment including QIAamp96 DNA kit and TaqMan® Universal PCR Master Mix, Hepatitis B Virus Surface Antigen Detection Kit, instruments including: centrifuge (Beckman Allegra X-15R), tissue grinder (QIAGEN-Tissue lyser II) and spectrophotometer (Thermo-NANODROP 1000).
# a) All mice were orally administered on the 28th day after the virus injection, and the day was set as day 0. Submaxillary blood of all mice was collected for serum collection before administration. The mice were administered once a day for four weeks.
# b) Submaxillary blood of all mice was collected for serum collection twice a week, the volume of the blood collected each time was approximately 100 μL.
# c) On the 28th day, all mice were euthanized and the blood was collected from the heart for serum collection.
# The content of HBsAg in the serum of the mice was determined by ELISA. The experimental procedure refers to the specification of HBsAg ELISA kit.
# a) The anti-HBV activity of the test compound on AAV/HBV mice model was evaluated by determining the content of HBsAg in the plasma of the mice.
# [3] = 14-day pre-toxicology tolerance test on rat; type: in vivo; conditions: once a day for 14 days, male rats
# Method: [table] A total of 21 animals in this experiment were randomly divided into 7 groups. The animals were orally administered with the test compounds once a day for 14 consecutive days, and the toxicity was evaluated. Animal necropsy and tissue would be taken from the fixative, repaired, dehydrated, embedded, sectioned, stained and microscopically examined. These tissues included the liver, heart and lung of all animals, and spleen, stomach, duodenum, jejunum, ileum, and kidney of partial animals.
# hepatitis B = conditions: woodchuck model, RG7834 as a single drug; cited from earlier work
structure (smiles),measurement,setting,value
"COCCCOc1cc2c(cc1OC)-c1cc(=O)c(C(=O)O)cn1[C@H](C(C)C)C2 [RG7834, reference compound]",Log HBsAg (IU/mL) (Ave. value),"HBV [1]; dosing time day 1, 30 mg/kg QD gavage",3.75 IU/mL
same,Log HBsAg (IU/mL) (Ave. value),"HBV [1]; dosing time day 3, 30 mg/kg QD gavage",4.08 IU/mL
same,Log HBsAg (IU/mL) (Ave. value),"HBV [1]; dosing time day 5, 30 mg/kg QD gavage",3.59 IU/mL
same,Log HBsAg (IU/mL) (Ave. value),"HBV [1]; dosing time day 7, 30 mg/kg QD gavage",1.10 IU/mL
same,HBsAg content in the plasma of the mice,HBV [2]; day 4,3.54 IU/mL
same,HBsAg content in the plasma of the mice,HBV [2]; day 7,3.58 IU/mL
same,HBsAg content in the plasma of the mice,HBV [2]; day 11,3.70 IU/mL
same,HBsAg content in the plasma of the mice,HBV [2]; day 14,3.49 IU/mL
same,HBsAg content in the plasma of the mice,HBV [2]; day 18,3.70 IU/mL
same,HBsAg content in the plasma of the mice,HBV [2]; day 21,3.52 IU/mL
same,HBsAg content in the plasma of the mice,HBV [2]; day 25,3.50 IU/mL
same,HBsAg content in the plasma of the mice,HBV [2]; day 28,3.66 IU/mL
same,HBsAg content in the plasma of the mice,HBV [2]; day −1,4.56 IU/mL
same,histopathological changes associated with the test compound,[3]; high dose group (1000 mg/kg),"mild myocardial degeneration in the heart, mild degeneration of central hepatic cells in the small lobules of the liver, mild decrease of white pulp lymphocytes in the spleen, and moderate acute inflammation of the duodenal mucosa"
same,histopathological changes associated with the test compound,"[3]; medium and low dose groups (300 and 100 mg/kg), heart, liver and lung examined",no histopathological changes associated with the test compound were observed
same,reduction of HBV-DNA,hepatitis B,1.7 Log
same,reduction of surface antigens,hepatitis B,2.57 Log
